Assay results as given in patent US20240082433A1, “TUMOR RESECTION PROCESS AND COMPOSITION CONTAINING IRIDIUM-CONTAINING NUCLEOSIDE” (Cleveland State University, priority 2022, published 2024).

Tests used:
[1] = tested on: cervical cancer cells (KB3-1 cell line); assay: Cytotoxic effects in KB3-1 cells; format: cell-based, human; conditions: KB3-1, after 24 hours
Text: (§1) Several Iridium-containing nucleosides were synthesized and their imaging and anti-cancer activities were characterized. One non-limiting example of a compound is designated as Ir(III)-PPY nucleoside and shown in FIG. 2 next to deoxyadenosine. The synthetic design relies on the catalyzed [3+2] cycloaddition of azides to terminal alkynes. In this design, pyridyl triazoles covalently link the metal atom to the deoxyribose and this prevents metal dissociation from the complex. The cellular uptake of Ir(III)-PPY nucleoside into cervical cancer cells (KB3-1 cell line) was evaluated by treating cells with variable concentrations of Ir(III)-PPY nucleoside (0-50 μM). At times ranging from 4 to 24 hours, fluorescence microscopy images were taken using an excitation wavelength (λex) of 340 nm and an emission wavelength (λem) of 480 nm. […] The uptake of low concentrations (10 μM) of Ir(III)-PPY nucleoside can be visualized as early as 4 hours post treatment. Ir(III)-PPY nucleoside produces weak cytotoxic effects (IC50˜50 μM) after 24 hours. Thus, the cellular uptake can be measured on short time scales (Δt<12 hours) without complications arising from effects on cell viability.

normal fibroblasts [2] = assay: Selective uptake in co-culture, normal fibroblasts, fluorescent microscopy; format: cell-based; conditions: co-cultured with RFP-U87, 10 μM, 4 hours
Protocol: (§2) Fluorescent microscopy was then used to validate that the uptake of Ir(III)-PPY nucleoside is selective for cancer cells. FIG. 4 compares the uptake of Ir(III)-PPY nucleoside using a human brain cancer cell line, U87, that expresses red fluorescent protein (RFP) versus normal fibroblasts. In these experiments, RFP-U87 cells were co-cultured with normal fibroblasts overnight and then treated with 10 μM Ir(III)-PPY nucleoside for 4 hours. […] Similar results were obtained at longer time intervals encompassing 24 hours incubation with Ir(III)-PPY nucleoside (data not shown).

brain cancer cells (U87) [3] = assay: Uptake/fluorescence imaging in 3D and 2D U87 brain cancer cell culture; format: cell-based, human
Protocol: To improve the imaging capabilities of this class of compound, additional analogs corresponding to Ir(III)-BZQ nucleoside and Ir(III)-PBO nucleoside (FIG. 5) were synthesized and tested for uptake using 3-dimensional cell culture techniques. […] Fluorescent microscopy was used to investigate the uptake of each nucleoside in which cells were treated with 1 μM of each compound for 24 hours. […] This conclusion is based on the more intense fluorescent signal observed in cells treated with Ir(III)-BZQ nucleoside that accurately defines the overall 3-dimensional shape of the cancerous mass. In particular, the overall intensity in green fluorescence caused by the uptake of Ir(III)-BZQ nucleoside is about 5 times greater than observed in cells treated with equivalent concentrations of Ir(III)-PPY nucleoside. […] While this represents an interesting phenomenon, this behavior precludes the ability of Ir(III)-PBO nucleoside to function as a “tumor margin” imaging agents since there is no defined outline of the cancerous mass.
(§3) Fluorescent microscopy techniques were used to measure both red and green fluorescence associated with the cellular uptake of the analog over a three (3) day treatment period. […] The fluorescent signals are only observed in the 3D cancerous masses, thus making them easily identifiable at low magnification (10×).
FIG. 10 compares fluorescence activity of Ir(III)-BZQ nucleoside with Indocyanine green at a fixed concentration of 10 μM. Images were taken comparing fluorescence emission in the red (600-700 nm) and green spectral range (500-600 nm) after 24 hours post-treatment.

[4] = tested on: human brain cancer cell line, U87, that expresses red fluorescent protein (RFP); assay: Selective uptake in co-culture, RFP-U87 cells, fluorescent microscopy; format: cell-based; conditions: RFP-U87 co-cultured with normal fibroblasts, 10 μM, 4 hours
Text: FIG. 4 includes microscopy images showing co-localization of Ir(III)-PPY nucleoside in glioblastoma cells expressing red-fluorescent protein (RFP-U87).
as §2

[5] = tested on: cervical cancer cells (KB3-1 cell line); assay: Cellular uptake into KB3-1 cells by fluorescence microscopy; format: cell-based, human
Protocol: FIG. 3 includes fluorescence microscopy images of the dose-dependent uptake of Ir(III)-PPY nucleoside in the human cancer cell line, KB3-1, particularly showing increased Ir(III)-PPY nucleoside (green) as a function of increasing concentration (Δt=4 hours).
as §1, with “Ir(III)-PPY nucleoside produces weak cytotoxic effects (IC50˜50 μM) after 24 hours.” left out

MDA-MB-453 = assay: Uptake/fluorescence in 3D TNBC model MDA-MB-453; format: cell-based
Protocol: (§4) The theranostic activity of […] was also confirmed using 3D models of triple negative breast cancer (TNBC) (MDA-MB-453, MDA-MB-468, BT-549, MDA-MB-231). TNBC cells were chosen due to the poor prognosis caused by their aggressive nature and limited treatment options. 3D cancer cells were treated with 10 μM Ir(III)-BZQ nucleoside for 24 hours prior to microscopy analyses.
Two (2) new Iridium-nucleosides designated Ir(III)-PPY-nucleoside (small, hydrophobic) and Ir(III)-PBO nucleoside (small, hydrophilic) were synthesized and tested as cancer imaging agents. FIG. 14 compares the imaging properties of these two analogs versus our lead agent, Ir(III)-BZQ nucleoside (small, hydrophobic). Experiments were performed treating MDA-MB-453 cells with 1 μM of each compound for 3 days. […] This phenomenon precludes its further development as a tumor margin imaging agent as it poorly defines the entire 3D mass as compared to Ir(III)-BZQ nucleoside and Ir(III)-PPY nucleoside.

brain cancer cells (U87) [6] = assay: Cell-killing effects against 2D and 3D U87 brain cancer cells by microscopy; format: cell-based, human; conditions: for cell-killing / therapeutic activity: U87 3D masses and 2D cells, 10 μM
Protocol: FIG. 7 illustrates the time-dependent uptake and cell-killing effects of Ir(III)-BZQ nucleoside (10 μM) against 2D and 3D brain cancer cells.
as §3

normal fibroblasts [7] = assay: LD50 in 2D cell culture, normal fibroblasts; format: cell-based; conditions: 2D cell cultures
Text: The therapeutic activity and selectivity of Ir(III)-BZQ nucleoside was confirmed by measuring LD50 values against MB-468 cells (high accumulation), MDA-MB-231 (low accumulation), and normal fibroblasts using 2D cell cultures (Table 1, below).

MDA-MB-231 = assay: Uptake/fluorescence in 3D TNBC model MDA-MB-231; format: cell-based; conditions: 3D MB-231, 10 μM, 24 hours
Protocol: as §4

MDA-MB-468 cells = assay: Dual parameter flow cytometry (Annexin V / propidium iodide) apoptosis; format: cell-based; conditions: MDA-MB-468, variable concentrations
Text: Dual parameter flow cytometry employing Annexin V and propidium iodide staining was used to measure apoptosis in MDA-MB-468 cells treated with variable concentrations of Ir(III)-BZQ nucleoside. […] Microscopy imaging verifies an increase in green fluorescence caused by the accumulation of Ir(III)-BZQ nucleoside and correlates with the dose-dependent increase in apoptosis caused by the agent.

[8] = tested on: MT1A2 cells (derived from PyMT); assay: Uptake/fluorescence in MT1A2 cells; format: cell-based; conditions: MT1A2, 10 μM, 24 hours
MDA-MB-468 = assay: Uptake/fluorescence in 3D TNBC model MDA-MB-468; format: cell-based; conditions: 3D MB-468, 10 μM, 24 hours
Protocol: as §4

BT-549 = assay: Uptake/fluorescence in 3D TNBC model BT-549; format: cell-based; conditions: 3D BT-549, 10 μM, 24 hours
Protocol: as §4

[9] = U87, 10 μM, three days vs 1 day

## F[P-](F)(F)(F)(F)F.OCC1OC(n2cc(-c3ccccn3)nn2)CC1O.c1ccc(-c2cccc[c]2[Ir][c]2ccccc2-c2ccccn2)nc1 [Ir(III)-PPY nucleoside]
[1]
  IC50: ~50 µM
Normal fibroblasts [2]
  uptake in normal fibroblasts: no uptake
Brain cancer cells (U87) [3]; U87 3D masses, 1 μM, 24 hours
  red fluorescence: not observed
[4]
  uptake in U87 cancer cells: rapidly accumulates
[5]; KB3-1, 0-50 μM, 4 to 24 hours, λex 340 nm, λem 480 nm
  intracellular accumulation (green fluorescence): dose-dependent
[5]; KB3-1, 10 μM
  time post treatment at which uptake can be visualized: ≤ 4 h

## F[P-](F)(F)(F)(F)F.OCC1OC(n2cc(-c3ccccn3)nn2)CC1O.c1ccc(-c2ncco2)[c]([Ir][c]2ccccc2-c2ncco2)c1 [Ir(III)-PBO nucleoside]
MDA-MB-453; MDA-MB-453, 1 μM, 3 days
  fluorescence pattern in cells: unique punctates
Brain cancer cells (U87) [3]; U87 3D masses, 1 μM, 24 hours
  fluorescence pattern in cells: unique punctates
  red fluorescence: not observed

## CC1(C)C(/C=C/C=C/C=C/C=C2\N(CCCCS(=O)(=O)O)c3ccc4ccccc4c3C2(C)C)=[N+](CCCCS(=O)(=O)[O-])c2ccc3ccccc3c21 [Indocyanine green, reference compound]
Brain cancer cells (U87) [3]; 10 μM, 24 hours post-treatment
  fluorescence emission in the red spectral range (600-700 nm), direct comparison: superior fluorescence emission activity
Brain cancer cells (U87) [3]; 1 and 10 μM, after 24 hours, 10× magnification
  red fluorescence in U87 cells: dose-and time dependent increase in red fluorescence
Brain cancer cells (U87) [3]; U87, identical concentrations (1 and 10 μM), 24 hours
  fluorescence emission activity in the red spectral range (600-700 nm) relative to Ir(III) BZQ nucleoside: ~5 times
Brain cancer cells (U87) [6]; 1 to 3 days treatment
  cell-killing / therapeutic activity: no detectable therapeutic activity
Brain cancer cells (U87) [6]; U87, 10 μM, 1 to 3 days treatment
  overall size of the 3D masses: increases as a function of time

## F[P-](F)(F)(F)(F)F.OCC1OC(n2cc(-c3ccccn3)nn2)CC1O.c1cnc2c(c1)ccc1ccc[c]([Ir][c]3cccc4ccc5cccnc5c34)c12 [Ir(III)-BZQ nucleoside]
MDA-MB-453; 3D MB-453, 10 μM, 24 hours
  fluorescence signals (uptake and accumulation): high fluorescence signals
MDA-MB-453; MDA-MB-453, 1 μM, 3 days
  fluorescence intensity compared to Ir(III)-PPY nucleoside and Ir(III)-PBO nucleoside: ~5 fold
  imaging activity among the three compounds: superior activity
Normal fibroblasts [7]
  cytotoxic effects (LD50): minimal cytotoxic effects
MDA-MB-231
  fluorescence signals (uptake and accumulation): weak fluorescence
Brain cancer cells (U87) [3]; 10 μM, 24 hours post-treatment
  fluorescence emission in the green spectral range (500-600 nm), direct comparison: superior fluorescence emission
Brain cancer cells (U87) [3]; U87 3D masses, 1 μM, 24 hours
  imaging activity amongst the three compounds tested: superior activity
  red fluorescence: display red fluorescence
Brain cancer cells (U87) [3]; U87 3D masses, 1 μM, 24 hours, equivalent concentrations
  overall intensity in green fluorescence relative to Ir(III)-PPY nucleoside: about 5 times
Brain cancer cells (U87) [3]; U87, 10 μM, 10× magnification
  fluorescence signal in 2D cells: Little to no fluorescence signal
Brain cancer cells (U87) [3]; U87, 10 μM, after 1 day, 10× magnification
  fluorescence signals in 3D cancerous masses: intense red and green fluorescence signals
Brain cancer cells (U87) [3]; U87, 10 μM, after three days
  fluorescence signals in 3D masses: still show intense fluorescence signals
Brain cancer cells (U87) [6]; 1 to 3 days treatment
  cell-killing / therapeutic activity: possesses cell-killing activity
Brain cancer cells (U87) [6]; [9]
  cell-killing effect on 2D cells: reduction in the number of 2D cells
  cell-killing effect on 3D masses: death of cells that reside at the outer fringe of the cancerous mass
MDA-MB-468 cells
  apoptosis: increase in both early- and late-stage apoptosis
  necrotic cell death: without causing necrotic cell death
[8]
  fluorescence signals (uptake and accumulation): no fluorescence signals
MDA-MB-468
  fluorescence signals (uptake and accumulation): high fluorescence signals
BT-549
  fluorescence signals (uptake and accumulation): weak fluorescence
